Results from US8883827B2, “Azole derivatives as WTN pathway inhibitors” (Oslo University Hospital HF, priority 2009, dated 2014).
One block for each molecule: values may come before it.

How the values were obtained:
Assay type in all cases: cell-based
[1] = test system: canonical Wnt signaling; assay: ST-Luc (SuperTOPFlash) Luciferase assay in HEK293 cells, 30% Wnt3a-CM; conditions: Homo sapiens, HEK293; 10 μM compound, 30% Wnt3a-CM, 24 h; relative to DMSO control
Experimental: Inhibition of Wnt signaling by compound No. 1 was quantified in vitro using a Luciferase assay in HEK293 cells transiently transfected with SuperTOPFlash plasmid (ST-Luc) (Veeman M T et al., Curr. Biol. 13: 680-685, 2003) at concentrations from 0.1-10 μM. HEK293 cells were purchased from ATCC (American Type Culture Collection) and maintained according to suppliers recommendations.
Transfection was performed using 80000 HEK293 cells seeded in 48-well plates coated with poly-L lysine. After 24 hours, 0.25 μg total plasmid DNA (0.23 μg SuperTOPFlash+0.02 μg pRL-TK (Renilla)—Promega) and 0.75 μl FuGENE6 (Roche) was combined in a total volume in 25 μl Opti-MEM® (Invitrogen) as described by the manufacturer (Roche). The transfection mixture was added to the plated cells and media were changed after 24 hours.
The Luciferase assay was performed by incubating transfected cells for 24 hours with various concentrations of compound No. 1 in 30% Wnt3a-CM (Wnt3a containing conditioned medium from L Wnt3a cells was harvested as described by ATCC). All treated reporter cells were finally lysed and the firefly luciferase and Renilla activities were measured on a 20/20n Luminometer (Turner BioSystems) as described in the Dual-Glo™ Luciferase Assay System Technical Manual (Promega).
HEK293 cells were transfected, grown and assayed as described in Example 22. 24 hours after seeding, the cells were incubated for an additional 24 hours with 10 μM concentrations of compounds in 30% Wnt3a-CM.
The percent activities shown in Table 3 are calculated relative to DMSO as a control. Some values shown are averages of multiple measurements. Compound XAV939 (Novartis; Huang et al., Nature (2009), 461, pp. 614-20) which is used as a positive control, has an activity of 7%.

[2] = test system: canonical Wnt signaling; assay: IC50 in STF/REN HEK293 cells, 50% Wnt3a-CM; conditions: Homo sapiens; STF/REN HEK293, 50% Wnt3a-CM, 24 h
Experimental: IC50 values were calculated using STF/REN HEK293 cells prepared essentially according to Example 22. Briefly, HEK293 cells (80,000 cells per well) were seeded in 48-well plates coated with poly-L lysine. 24 hours after seeding, the cells were incubated for an additional 24 hours with various compound concentrations in 50% Wnt3a-CM. After compound exposure, the cells were lysed and the firefly luciferase and Renilla activities were measured on a 20/20n Luminometer (Turner BioSystems) as described in the Dual-Glo™ Luciferase Assay System Technical Manual (Promega).
(§1) XLfit (idbs) was used to determine the IC50 and GI50 values in inhibition experiments. The data were fit to the following formulae:
IC50: Langmuir Binding Isotherm: fit=((A+(B*x))+(((C−B)*(1−exp((−1*D)*x)))/D)) res=(y−fit)

[3] = test system: SW480 colon carcinoma cells; assay: MTS cell proliferation assay, Table 5; conditions: Homo sapiens; SW480, 10 μM, 72 h; relative to DMSO control; read-out: Cell proliferation (%) for test compounds
Experimental: For the experiment giving the results shown in Table 5, cells (3000 per well) were seeded on 96 well plates (eight replicates per treatment). After 24 hours, and daily thereafter, cell culture medium (including 10% FBS) was mixed with 10 μM compounds or with 0.1% DMSO vehicle and then added to the wells. Sixteen wells of seeded control cells, defining incubation time zero (t0=24 hour after cell seeding), were incubated with 20 μl substrate in 100 μl phenol free D-MEM (Invitrogen) for 2 hours, as described in the CellTiter 96® AQueous Non-Radioactive Cell Proliferation Assay protocol (Promega). The A490 was recorded. The treatment samples were likewise measured after 72 hours.
The quantity of reduced MTS product (as measured by the absorbance at 490 nm) is directly proportional to the number of living cells in the culture and thus allows a direct comparison of cell proliferation in each case. DMSO was used as a control. The following formula was used to determine single well relative A490 sample values: ((Sample A490−Average A490t0)*100)/(Average A490t720.1% DMSO control−Average A490t0)
The proliferation of SW480 cells (in percent) is the A492 value relative to that of the DMSO control.

[4] = test system: SW480 cells; assay: Growth inhibition (GI50) MTS assay; conditions: Homo sapiens, 72 h
Experimental: Growth inhibition curves were prepared using SW480 cells, prepared essentially according to Example 23. SW480 cells (3000 cells per well) were seeded on 96 well plates (eight replicates per treatment). 24 hours later and daily thereafter, cell culture media (including 10% FBS) was mixed with various compound concentrations or with 0.1% DMSO vehicle and then added to the wells. Sixteen wells of seeded control cells, defining incubation time zero (to =24 hour after cell seeding), were incubated with […] substrate in 100 μl of phenol-free D-MEM (Invitrogen) for 2 hours, as described in the CellTiter 96® AQueous Non-Radioactive Cell Proliferation Assay protocol (MTS, Promega). The A490 was recorded. The treatment samples were likewise measured after 72 hours. The following formula was used to determine the single well relative A490 sample values: ((Sample A490−Average A490t0)*100)/(Average A490t720.1% DMSO control−Average A490t0)
as §1
GI50: Eadie-Hofstee Model: fit=(A+((B*x)/((C*(D+1))+x))) inv=(((y−A)*(C*(D+1)))/((A+B)−y)) res=(y−fit)

IC50 [2]: 151 nM
SMILES: Clc1ccc(-c2nnc(CSc3nnc(-c4ccncc4)n3-c3ccccc3Cl)o2)cc1Cl [compound 130, 4-(5-((5-(3,4-dichlorophenyl)-1,3,4-oxadiazol-2-yl)methylthio)-4-(2-chlorophenyl)-4H-1,2,4-triazol-3-yl)pyridine]
activity at 10 µM [1]: 9% | activity at 10 µM [3]: 72%

IC50 [2]: 59 nM
SMILES: Clc1ccc(-c2nnc(CSc3nnc(-c4ccncc4)n3-c3ccccc3Cl)o2)cc1 [compound 113, 4-(5-((5-(4-chlorophenyl)-1,3,4-oxadiazol-2-yl)methylthio)-4-(2-chlorophenyl)-4H-1,2,4-triazol-3-yl)pyridine]
activity at 10 µM [1]: 4.9% | activity at 10 µM [3]: 56%

IC50 [2]: 29 nM
SMILES: Cc1ccc(-c2nnc(CSc3nnc(-c4ccncn4)n3-c3ccccc3Cl)o2)cc1 [compound 105, 4-(5-((5-p-tolyl-1,3,4-oxadiazol-2-yl)methylthio)-4-(2-chlorophenyl)-4H-1,2,4-triazol-3-yl)pyrimidine]
activity at 10 µM [1]: 4.4% | activity at 10 µM [3]: 54%

IC50 [2]: 218 nM
SMILES: Cc1ccc(-c2nnc(CSc3nnc(-c4ccc(Cl)nc4)n3-c3ccccc3Cl)o2)cc1 [Compound 108]
activity at 10 µM [1]: 0.8% | activity at 10 µM [3]: 42%

IC50 [2]: 551 nM
SMILES: Cc1ccc(-c2nnc(CSc3nnc(-c4ccncc4)n3-c3ccccc3Cl)o2)c(Br)c1 [compound 72]
activity at 10 µM [1]: 20% | activity at 10 µM [3]: 55%

IC50 [2]: 872 nM
SMILES: Cc1ccc(-c2nnc(CSc3nnc(-c4ccc(F)cc4F)n3-c3ccccc3Cl)o2)cc1 [compound 110, 3-((5-p-tolyl-1,3,4-oxadiazol-2-yl)methylthio)-4-(2-chlorophenyl)-5-(2,4-difluorophenyl)-4H-1,2,4-triazole]
activity at 10 µM [1]: 2% | activity at 10 µM [3]: 50%

IC50 [2]: 688 nM
SMILES: Cc1ccc(-c2nnc(CSc3nnc(-c4ccc(Cl)cc4Cl)n3-c3ccccc3Cl)o2)cc1 [compound 112, 3-((5-p-tolyl-1,3,4-oxadiazol-2-yl)methylthio)-5-(2,4-dichlorophenyl)-4-(2-chlorophenyl)-4H-1,2,4-triazole]
activity at 10 µM [1]: 0.3% | activity at 10 µM [3]: 39%

IC50 [2]: 795 nM
SMILES: Clc1ccc(-c2nnc(CSc3nnc(-c4ccncc4)n3-c3ccccc3Cl)o2)c(Cl)c1 [compound 114, 4-(5-((5-(2,4-dichlorophenyl)-1,3,4-oxadiazol-2-yl)methylthio)-4-(2-chlorophenyl)-4H-1,2,4-triazol-3-yl)pyridine]
activity at 10 µM [1]: 4.2% | activity at 10 µM [3]: 69%

IC50 [2]: 262 nM
SMILES: Cc1ccc(-c2nnc(CSc3nnc(-c4ccnc(O)c4)n3-c3ccccc3Cl)o2)cc1 [compound 116, 4-(5-((5-p-tolyl-1,3,4-oxadiazol-2-yl)methylthio)-4-(2-chlorophenyl)-4H-1,2,4-triazol-3-yl)pyridin-2-ol]
activity at 10 µM [1]: 7% | activity at 10 µM [3]: 70%

Second part, the molecule before the results:

SMILES: Cc1ccccc1-n1c(SCc2nc(-c3ccc(Cl)cc3)no2)nnc1-c1ccncc1 [Compound 41]
activity at 10 µM [1]: 9.4% | IC50 [2]: 470 nM | GI50 [4]: < 5000 nM

SMILES: Clc1cc(Cl)cc(-c2nnc(CSc3nnc(-c4ccncc4)n3-c3ccccc3Cl)o2)c1 [compound 117, 4-(5-((5-(3,5-dichlorophenyl)-1,3,4-oxadiazol-2-yl)methylthio)-4-(2-chlorophenyl)-4H-1,2,4-triazol-3-yl)pyridine]
activity at 10 µM [1]: 9% | IC50 [2]: 834 nM | activity at 10 µM [3]: 85%

SMILES: COc1ccc(-n2c(SCC(C)(C)c3nc(-c4ccc(C)cc4)no3)nnc2-c2ccncc2)cc1 [Compound 18]
activity at 10 µM [1]: 32.3% | IC50 [2]: 5900 nM | GI50 [4]: > 25000 nM

SMILES: COc1ccc(-n2c(SCc3nnc(-c4ccccc4)o3)nnc2-c2ccncc2)cc1 [Compound 11]
activity at 10 µM [1]: 9.3% | IC50 [2]: 1500 nM | GI50 [4]: > 25000 nM

SMILES: Cc1ccc(-c2noc(CSc3nnc(-c4ccnc(O)c4)n3-c3ccccc3C)n2)cc1 [Compound 46]
activity at 10 µM [1]: 13.3% | IC50 [2]: 700 nM | GI50 [4]: 9000 nM

SMILES: COc1ccc(-n2c(SCc3nc(-c4ccc(C)cc4)no3)nnc2-c2ccccc2OC)cc1 [Compound 8]
activity at 10 µM [1]: 28.5% | IC50 [2]: 2100 nM | GI50 [4]: 10500 nM

SMILES: Cc1ccc(-c2noc(CSc3nnc(-c4ccncc4)n3-c3ccccc3F)n2)cc1 [Compound 42]
activity at 10 µM [1]: 14.6% | IC50 [2]: 400 nM | GI50 [4]: 8000 nM

SMILES: Cc1ccc(-c2nnc([C@@H](C)Sc3nnc(-c4ccncc4)n3-c3ccccc3Cl)o2)cc1 [99b]
activity at 10 µM [1]: 12% | IC50 [2]: 163 nM | activity at 10 µM [3]: 72%

SMILES: Cc1ccc(-c2nnc(CSc3nnc(-c4ccncc4)n3-c3ccccc3C)o2)cc1 [Compound 48]
activity at 10 µM [1]: 9.9% | IC50 [2]: 220 nM | GI50 [4]: 9000 nM

SMILES: COc1ccc(-n2c(SCc3nc(-c4ccc(Cl)cc4)no3)nnc2-c2ccncc2)cc1 [Compound 5]
activity at 10 µM [1]: 10% | IC50 [2]: 950 nM | GI50 [4]: 10000 nM

SMILES: Cc1ccc(-c2noc(CSc3nnc(-c4ccncc4)n3-c3cccc(Cl)c3C)n2)cc1 [Compound 10]
activity at 10 µM [1]: 10.1% | IC50 [2]: 3300 nM | GI50 [4]: 13500 nM

SMILES: Cc1ccc(-c2nnc(CSc3nnc(-c4ccncc4)n3-c3ccccc3Cl)o2)cn1 [compound 68]
activity at 10 µM [1]: 17% | IC50 [2]: 381 nM | activity at 10 µM [3]: 60%

SMILES: Cc1ccc(-c2noc(CSc3nnc(-c4ccncc4)n3-c3cccc(C)c3C)n2)cc1 [Compound 44]
activity at 10 µM [1]: 10.4% | IC50 [2]: 570 nM | GI50 [4]: 22000 nM

SMILES: COc1ccc(-n2c(NCc3nc(-c4ccc(C)cc4)no3)nnc2-c2ccncc2)cc1 [Compound 19]
activity at 10 µM [1]: 44.1% | IC50 [2]: 8800 nM | GI50 [4]: > 25000 nM

SMILES: Cc1ccc(-c2nnc(CSc3nnc(-c4cc(O)cc(O)c4)n3-c3ccccc3Cl)o2)cc1 [compound 106, (5-((5-p-tolyl-1,3,4-oxadiazol-2-yl)methylthio)-4-(2-chlorophenyl)-4H-1,2,4-triazol-3-yl)benzene-1,3-diol]
activity at 10 µM [1]: 14.5% | activity at 10 µM [3]: 63%

SMILES: Cc1ccc(-c2noc(CSc3nnc(-c4ccncc4)n3-c3ccccc3C)n2)cc1 [Compound 7]
activity at 10 µM [1]: 5.6% | IC50 [2]: 880 nM | GI50 [4]: 7500 nM
